29 molecules from patent US11560385B2, “Proteasome activity enhancing compounds” (Proteostasis Therapeutics, Inc., priority 2018, dated 2023) can be followed below.

Usually IC50 stands for the midpoint of a concentration-inhibition curve. Lower therefore signals inhibition by little substance.

Structures are written as SMILES.

USP14, sequence (P54578 whole entry, looked up): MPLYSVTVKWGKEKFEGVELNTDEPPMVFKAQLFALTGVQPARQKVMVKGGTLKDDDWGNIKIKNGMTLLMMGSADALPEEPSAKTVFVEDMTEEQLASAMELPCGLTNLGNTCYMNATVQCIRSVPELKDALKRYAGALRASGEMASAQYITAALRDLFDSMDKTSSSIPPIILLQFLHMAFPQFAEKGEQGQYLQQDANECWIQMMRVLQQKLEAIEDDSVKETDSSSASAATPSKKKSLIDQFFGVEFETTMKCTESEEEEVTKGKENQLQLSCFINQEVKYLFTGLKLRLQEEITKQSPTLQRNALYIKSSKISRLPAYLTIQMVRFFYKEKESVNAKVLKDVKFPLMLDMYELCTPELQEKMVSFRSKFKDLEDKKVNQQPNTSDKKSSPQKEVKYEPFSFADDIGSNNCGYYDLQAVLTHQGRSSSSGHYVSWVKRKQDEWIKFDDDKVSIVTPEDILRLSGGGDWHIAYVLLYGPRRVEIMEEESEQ

For the test, the target named is USP14 (Homo sapiens (Human), UniProt P54578). The test can be described thus: Usp14 inhibition assay (Example 57B, B-series compounds). The note with it: IC50 class; average value from a minimum of two experimental determinations. The format is biochemical. From the text:
Example 57B: Usp14 Inhibition Assay
The IC50 values in the Table below represent the average value from a minimum of two experimental determinations.
The molecule `Cc1c(C(=O)CN2C3CC4CC2CC(C3)O4)cc(C#CCCC#N)n1-c1ccc(C#N)cc1` [Example 21B, 4-(3-(2-((1r,3r,5r,7r)-2-Oxa-6-azaadamantan-6-yl)acetyl)-5-(4-cyanobut-1-yn-1-yl)-2-methyl-1H-pyrrol-1-yl)benzonitrile] yielded an IC50 of 50 to 500 nM.
Molecule `Cc1cc(C(=O)CN2C3CCC2(C(C)O)CC3)c(C)n1-c1ccc(C#N)cc1` (racemic) [Example 143B, (±)-4-(3-(2-(1-((R)-1-Hydroxyethyl)-7-azabicyclo[2.2.1]heptan-7-yl)acetyl)-2,5-dimethyl-1H-pyrrol-1-yl)benzonitrile] had an IC50 of 50 to 500 nM.
Next, `Cc1c(C(=O)CN2[C@@H]3CC[C@H]2[C@@H](O)C3)cc(CC2CC(C)(C)C2)n1-c1ccc(C#N)cc1` (racemic) [Example 134B, (±)-4-(5-((3,3-Dimethylcyclobutyl)methyl)-3-(2-((1R,2R,4S)-2-hydroxy-7-azabicyclo[2.2.1]heptan-7-yl)acetyl)-2-methyl-1H-pyrrol-1-yl)benzonitrile]: less than 50 nM.
The molecule `Cc1cc(C(=O)CN2C3CCC2[C@@H](O)C3)c(C)n1-c1ccc(Cl)c(F)c1` (mixture of isomers) [Example 117B, (±)-1-(1-(4-Chloro-3-fluorophenyl)-2,5-dimethyl-1H-pyrrol-3-yl)-2-((2R)-2-hydroxy-7-azabicyclo[2.2.1]heptan-7-yl)ethan-1-one] registered an IC50 of 50 to 500 nM.
Next, `COCCCCc1cc(C(=O)CN2[C@H]3CC[C@@H]2[C@H](O)C3)c(C)n1-c1ccc(C#N)cc1` (stereo in doubt) [Example 13B, (rel)-4-(3-(2-((1S,2S,4R)-2-Hydroxy-7-azabicyclo[2.2.1]heptan-7-yl)acetyl)-5-(4-methoxybutyl)-2-methyl-1H-pyrrol-1-yl)benzonitrile]: less than 50 nM; `Cc1c(F)c(C(=O)CN2C3CCC2[C@@H](O)C3)c(C)n1-c1ccc(C#N)cc1` (mixture of isomers) [Example 78B, (±)-4-(3-Fluoro-4-(2-((2R)-2-hydroxy-7-azabicyclo[2.2.1]heptan-7-yl)acetyl)-2,5-dimethyl-1H-pyrrol-1-yl)benzonitrile]: 50 to 500 nM.
In the case of `Cc1c(C#N)c(C(=O)CN2C3CCC2[C@@H](O)C3)c(C)n1-c1ccc(C#N)cc1` (mixture of isomers) [Example 95B, (±)-1-(4-Cyanophenyl)-4-(2-((2R)-2-hydroxy-7-azabicyclo[2.2.1]heptan-7-yl)acetyl)-2,5-dimethyl-1H-pyrrole-3-carbonitrile] it was greater than 500 nM; in that of `Cc1c(C(=O)CN2[C@@H]3CC[C@H]2[C@@H](O)C3)cc(/C=C/CC(C)(C)C#N)n1-c1ccc(C#N)cc1` (racemic) [Example 15B, (±)-4-(5-((E)-4-Cyano-4-methylpent-1-en-1-yl)-3-(2-((1R,2R,4S)-2-hydroxy-7-azabicyclo[2.2.1]heptan-7-yl)acetyl)-2-methyl-1H-pyrrol-1-yl)benzonitrile], less than 50 nM; in that of `Cc1c(C(=O)CN2C3CCC2[C@@H](O)C3)cc(C#CC2COC2)n1-c1ccc(C#N)cc1` (mixture of isomers) [Example 57B, (±)-4-(3-(2-((2R)-2-Hydroxy-7-azabicyclo[2.2.1]heptan-7-yl)acetyl)-2-methyl-5-(oxetan-3-ylethynyl)-1H-pyrrol-1-yl)benzonitrile], 50 to 500 nM.
In the case of `Cc1c(C(=O)CN2[C@@H]3CC[C@H]2[C@@H](O)C3)cc(-c2csc(C(F)(F)F)n2)n1-c1ccc(C#N)cc1` (racemic) [Example 145B, (±)-4-(3-(2-((1R,2R,4S)-2-Hydroxy-7-azabicyclo[2.2.1]heptan-7-yl)acetyl)-2-methyl-5-(2-(trifluoromethyl)thiazol-4-yl)-1H-pyrrol-1-yl)benzonitrile] it was greater than 500 nM; in that of `Cc1cc(C(=O)CN2C3CCC2(C(=O)O)CC3)c(C)n1-c1ccc(C#N)cc1` [Example 127B, 7-(2-(1-(4-Cyanophenyl)-2,5-dimethyl-1H-pyrrol-3-yl)-2-oxoethyl)-7-azabicyclo[2.2.1]heptane-1-carboxylic Acid], greater than 500 nM; in that of `Cc1cc(C(=O)CN2C3CCCC2CCC3)c(C)n1-c1ccc(C#N)cc1` [Example 87B, 4-(3-(2-((1s,5s)-9-Azabicyclo[3.3.1]nonan-9-yl)acetyl)-2,5-dimethyl-1H-pyrrol-1-yl)benzonitrile], 50 to 500 nM.
`Cc1c(C(=O)CN2[C@@H]3CC[C@H]2[C@@H](O)C3)cc(CCC2(C)COC2)n1-c1ccc(C#N)cc1` (racemic) [Example 55B, (±)-4-(3-(2-((1R,2R,4S)-2-Hydroxy-7-azabicyclo[2.2.1]heptan-7-yl)acetyl)-2-methyl-5-(2-(3-methyloxetan-3-yl)ethyl)-1H-pyrrol-1-yl)benzonitrile]: the 50% inhibitory concentration (IC50) is less than 50 nM.
`Cc1cc(C(=O)CN2[C@@H]3C=C(C(F)(F)F)[C@H]2CC3)c(C)n1-c1ccc(C#N)cc1` (racemic) [Example 141B, (±)-4-(2,5-Dimethyl-3-(2-((1R,4S)-2-(trifluoromethyl)-7-azabicyclo[2.2.1]hept-2-en-7-yl)acetyl)-1H-pyrrol-1-yl)benzonitrile] displayed an IC50 greater than 500 nM.
Consider `Cc1c(C(=O)CN2C3CCC2CC3)cc(/C=C/CCS(C)(=O)=O)n1-c1ccc(Cl)cc1` [Example 34B, (E)-2-(7-Azabicyclo[2.2.1]heptan-7-yl)-1-(1-(4-chlorophenyl)-2-methyl-5-(4-(methylsulfonyl)but-1-en-1-yl)-1H-pyrrol-3-yl)ethan-1-one], for which the IC50 is less than 50 nM.
With `Cc1c(C(=O)CN2C3CCC2[C@H](O)C3)cc(C(C)CCS(C)(=O)=O)n1-c1ccc(C#N)cc1` (mixture of isomers) [Example 11B, (±)-4-(3-(2-((2R)-2-Hydroxy-7-azabicyclo[2.2.1]heptan-7-yl)acetyl)-2-methyl-5-(4-(methylsulfonyl)butan-2-yl)-1H-pyrrol-1-yl)benzonitrile], the half-maximal inhibitory concentration (IC50) was greater than 500 nM.
`Cc1c(C(=O)CN2C3CCC2[C@@H](O)C3)c(C)n(-c2ccc(C#N)cc2)c1C` (mixture of isomers) [Example 76B, (±)-4-(3-(2-((2R)-2-Hydroxy-7-azabicyclo[2.2.1]heptan-7-yl)acetyl)-2,4,5-trimethyl-1H-pyrrol-1-yl)benzonitrile] came in with a concentration for half-maximal inhibition (IC50) of 50 to 500 nM.
The molecule `COCCCCc1cc(C(=O)CN2[C@@H]3CC[C@H]2[C@@H](O)C3)c(C)n1-c1ccc(C#N)cc1` (stereo in doubt) [Example 12B, (rel)-4-(3-(2-((1R,2R,4S)-2-Hydroxy-7-azabicyclo[2.2.1]heptan-7-yl)acetyl)-5-(4-methoxybutyl)-2-methyl-1H-pyrrol-1-yl)benzonitrile] yielded an IC50 of less than 50 nM.
Molecule `Cc1cc(C(=O)CN2C3CCC2[C@@H](O)C3)c(C)n1-c1ccc(C#N)cc1F` (mixture of isomers) [Example 91B, (±)-3-Fluoro-4-(3-(2-((2R)-2-hydroxy-7-azabicyclo[2.2.1]heptan-7-yl)acetyl)-2,5-dimethyl-1H-pyrrol-1-yl)benzonitrile] gave an IC50 of 50 to 500 nM.
With `Cc1c(C(=O)CN2C3CCC2CC3)cc(CCCCS(C)(=O)=O)n1-c1ccc(Cl)cc1` [Example 18B, 2-(7-Azabicyclo[2.2.1]heptan-7-yl)-1-(1-(4-chlorophenyl)-2-methyl-5-(4-(methylsulfonyl)butyl)-1H-pyrrol-3-yl)ethan-1-one], the IC50 lay in the range of 50 to 500 nM.
Consider `Cc1c(C(=O)CN2C3CCC2C(O)C3)cc([C@@H]2C[C@H]2CCC#N)n1-c1ccc(C#N)cc1` (mixture of isomers) [Example 17B, (±)-4-(5-((1R,2R)-2-(2-Cyanoethyl)cyclopropyl)-3-(2-((2R)-2-hydroxy-7-azabicyclo[2.2.1]heptan-7-yl)acetyl)-2-methyl-1H-pyrrol-1-yl)benzonitrile], for which the IC50 lay within 50 to 500 nM.
`Cc1cc(C(=O)CN2[C@@H]3CC[C@@H]2CC(C)(O)C3)c(C)n1-c1ccc(C#N)cc1` (stereo partly drawn) [Example 68B, 4-(3-(2-((1R,3r,5S)-3-Hydroxy-3-methyl-8-azabicyclo[3.2.1]octan-8-yl)acetyl)-2,5-dimethyl-1H-pyrrol-1-yl)benzonitrile] had an IC50 of 50 to 500 nM.
For `Cc1nc(-c2cc(C(=O)CN3[C@@H]4CC[C@H]3[C@@H](O)C4)c(C)n2-c2ccc(C#N)cc2)cs1` (racemic) [Example 144B, (±)-4-(3-(2-((1R,2R,4S)-2-Hydroxy-7-azabicyclo[2.2.1]heptan-7-yl)acetyl)-2-methyl-5-(2-methylthiazol-4-yl)-1H-pyrrol-1-yl)benzonitrile], the 50% inhibitory concentration (IC50) fell in the range of 50 to 500 nM.
`Cc1c(C(=O)CN2C3CCC2[C@@H](O)C3)cc(C2CC2)n1-c1ccc(C#N)cc1` (mixture of isomers) [Example 98B, (±)-4-(5-Cyclopropyl-3-(2-((2R)-2-hydroxy-7-azabicyclo[2.2.1]heptan-7-yl)acetyl)-2-methyl-1H-pyrrol-1-yl)benzonitrile]: the IC50 was 50 to 500 nM.
Turning to `Cc1nc(Cc2c(Cl)c(C(=O)CN3C4CCC3[C@@H](O)C4)c(C)n2-c2ccc(C#N)cc2)cs1` (some centres unmarked) [Example 128B], the IC50 was less than 50 nM.
`Cc1c(C(=O)CN2C3CCC2[C@@H](O)C3)cc(C2CCC2)n1-c1ccc(C#N)cc1` (mixture of isomers) [Example 108B, (±)-4-(5-Cyclobutyl-3-(2-((2R)-2-hydroxy-7-azabicyclo[2.2.1]heptan-7-yl)acetyl)-2-methyl-1H-pyrrol-1-yl)benzonitrile] came in with an IC50 of less than 50 nM.
Consider `Cc1cc(C(=O)CN2C3CC4CC2CC(C3)O4)c(C)n1-c1ccc(C#N)cc1` [Example 84B, 4-(3-(2-((1r,3r)-2-Oxa-6-azaadamantan-6-yl)acetyl)-2,5-dimethyl-1H-pyrrol-1-yl)benzonitrile], for which the IC50 is 50 to 500 nM.
Take `Cc1c(C(=O)CN2C3CCC2[C@@H](O)C3)cc(/C=C/CN2C(=O)c3ccccc3C2=O)n1-c1ccc(C#N)cc1` (mixture of isomers) [Example 153B, (±)-4-(5-0E)-3-(1,3-Dioxoisoindolin-2-yl)prop-1-en-1-yl)-3-(2-((1R,2R,4S)-2-hydroxy-7-azabicyclo[2.2.1]heptan-7-yl)acetyl)-2-methyl-1H-pyrrol-1-yl)benzonitrile]: the IC50 was less than 50 nM.
The molecule `Cc1c(C(=O)CN2[C@@H]3CC[C@@H]2CC(O)C3)cc(CCCCS(C)(=O)=O)n1-c1ccc(C#N)cc1` (stereo partly drawn) [Example 7B, 4-(3-(2-((1R,3r,5S)-3-Hydroxy-8-azabicyclo[3.2.1]octan-8-yl)acetyl)-2-methyl-5-(4-(methylsulfonyl)butyl)-1H-pyrrol-1-yl)benzonitrile] showed an IC50 of less than 50 nM.
